ChEMBL document CHEMBL5584334, “Discovery of a Covalent Inhibitor of Pro-Caspase-1 Zymogen Blocking NLRP3 Inflammasome Activation and Pyroptosis” (J Med Chem, 2024)
Calls of active or inactive are those of the source. The rule behind the calls is not given here.

Test system: J774.A1
Assay: Inhibition of NLRP3 colocalization in LPS/nigericin stimulated mouse J774.A1 cells by fluorescent staining based assay
Type: functional, cell-based

COc1ccc2c(c1)[C@]1(C=C[C@H](N=C=S)C[C@H]1C(=O)OC(C)(C)C)C(=O)N2C(=O)OCc1ccccc1
inhibition: Active
